According to US7618984B2, “Sulfonamide compound” (Asahi Kasei Pharma Corporation, priority 2005, dated 2009):

Tests used:
[1] = system: neutrophils; experiment: Neutrophil migration inhibitory action, Boyden Chamber, FMLP (Test Example 3); format: cell-based; settings: 0.5 h, human neutrophils, FMLP 1 μM, 37° C., 30 minutes, read-out: IC50, compound concentration providing a migration inhibition ratio of 50%
Protocol: Neutrophils were isolated from 50 to 100 ml of peripheral blood collected from healthy human donors by the method described in Test Example 1 to obtain a cell suspension (8×10^6/ml). Subsequently, solutions of a test compound at various concentrations were introduced into wells of a 96-well plate in a volume of 125 μl per well, the cell suspension of an equivalent volume was added to it and the plate was preincubated at room temperature for 5 minutes. During the preincubation, FMLP (1 μM, Sigma) solution was added to the lower chamber to set Boyden Chamber, the preincubated cell suspension was added to the upper chamber in a volume of 200 μl per well, and the cells were allowed to migrate at 37° C. under 5% carbon dioxide for 30 minutes. The filter after the migration was collected, and the non-migrated cells adhered to the surface that faced the upper chamber were carefully wiped off. Then, the migrated cells on the back surface were stained with DifQuick dye solution (International Reagents), washed with water and dried, and then absorbance was measured at 595 nm. The inhibition ratio against migration (%) of a test compound was calculated by using the following equation: Migration inhibition ratio(%)=(1−Absorbance of the group with addition of test compound/Absorbance of the group without addition of test compound)×100
Further, the migration inhibitory ratio was calculated with changing the test compound concentration, and a compound concentration providing an inhibition ratio of 50% was obtained as IC50.

[2] = system: rabbit intraocular pressure; experiment: Rabbit intraocular pressure reduction enhancing action, combination with timolol maleate (Test Example 6-2); format: in vivo, Japanese white rabbit; settings: 0.01 weight % 19-1 compound aqueous solution and/or timolol maleate (Timoptol), 50 μL; difference relative to the control group, 1, 2 and 4 hours
Protocol: As a test compound, the 19-1 compound was dissolved in physiological saline, and the solution was neutralized by addition of sodium hydroxide (pH 7.0 to 8.0) to prepare a 0.01 weight % aqueous solution (19-1 compound aqueous solution). As a drug for combination use, timolol maleate (trade name: Timoptol, Santen Pharmaceutical) was used as an adrenergic receptor β blocker, as the marketed formulation as it was.
A Japanese white rabbit having a body weight of about 2 kg was placed in a positioner and naturalized for one week before the experiment. An opthalmologic local anesthesant (Benoxil) was administered to both eyes, and then intraocular pressure before instillation was measured by using a tonometer (Classic 30, Solan). […] The intraocular pressure thereafter was measured for each group 1, 2 and 4 hours after the second administration of the test compound, and the difference of the measured values at each measurement time for the each group and the control group was considered an intraocular pressure reduction value of each group. The largest difference of the intraocular pressure values relative to the control group among those of the measured values of the measurement times was considered the maximum intraocular pressure reduction value (max ΔIOP) of each drug group.

[3] = system: monkey intraocular pressure; experiment: Intraocular pressure reduction enhancing action in monkey (Test Example 7); format: in vivo; settings: cynomolgus monkey
Protocol: Moreover, as for the test compound used for combination use, similar effect can be obtained also with the compounds of the present invention represented with the example numbers mentioned in Test Example 2. The test is performed by using cynomolgus monkeys sufficiently naturalized for the operation of fixation on a monkey chair and ophathalmotonometry.
As the test compound, the 19-1 compound is dissolved in physiological saline, and the solution is neutralized by addition of sodium hydroxide (pH 7.0 to 8.0) to prepare a 0.01 weight % aqueous solution (19-1 compound aqueous solution). As a drug for combination use, latanoprost (trade name: Xalatan, Pfizer) is used as the marketed formulation per se. The test aqueous solution or the drug for combination use is instilled to the left eye, and the right eye is not treated (control eye). […] After initial intraocular pressure values of the monkeys are measured for each group, 30 μL of physiological saline is instilled to the control group, single drug group 1, and single drug group 2, and latanoprost is instilled in the same volume to the combination use group. […] Then, the intraocular pressure is measured over time for each group.

N[C@H]1CCN(S(=O)(=O)c2cccc3cncc(Cl)c23)C1 [Example 19-1, (S)-3-Amino-1-(4-chloro-5-isoquinolinesulfonyl)pyrrolidine]
IC50 [1]: 10 to 40 µM | Max ΔIOP (maximum intraocular pressure reduction value), Table 4 [2]: 4.1 mmHg | intraocular pressure reducing action in the single drug group 1 ([3]; 0.01 weight % aqueous solution, 30 μL): exceeding that of the control group | intraocular pressure reducing action in the combination use group ([3]; latanoprost (Xalatan) 30 μL, 5 minutes later 19-1 compound aqueous solution 30 μL): exceeding those of both the single drug group 1 and single drug group 2
